# ChEMBL document CHEMBL3885881, “DrugMatrix”
# Species on record: Rattus norvegicus
# Experiment: DrugMatrix - Regimen: Daily Repeat
# Format: toxicity, organism-based, Sprague-Dawley
# Design: regimen Daily Repeat, gender Male, age 6-8 weeks
# Conditions: in vivo, po, route oral GAVAGE, vehicle .5 % CMC; for ABSOLUTE BASOPHIL / ABSOLUTE EOSINOPHIL / ABSOLUTE LYMPHOCYTE / ABSOLUTE MONOCYTE / ABSOLUTE SEGMENTED NEUTROPHIL / BASOPHIL / EOSINOPHIL / ERYTHROCYTE COUNT / HEMATOCRIT / HEMOGLOBIN / LEUKOCYTE COUNT / LYMPHOCYTE / MEAN CORPUSCULAR HEMOGLOBIN / MEAN CORPUSCULAR HEMOGLOBIN CONCENTRATION / MEAN CORPUSCULAR VOLUME / MONOCYTE / NEUTROPHIL / NUCLEATED RED BLOOD CELLS / PLATELET COUNT: tissue Blood; for ALANINE AMINOTRANSFERASE / ALBUMIN / ALKALINE PHOSPHATASE / ASPARTATE AMINOTRANSFERASE / BLOOD UREA NITROGEN / CARBON DIOXIDE / CHLORIDE / CHOLESTEROL / CREATINE PHOSPHOKINASE / CREATININE / GLUCOSE / LACTATE DEHYDROGENASE / LIPASE / PHOSPHORUS / POTASSIUM / SODIUM / TOTAL BILIRUBIN / TOTAL PROTEIN / URIC ACID: tissue Plasma
# [1] = 0 mg/kg, 72 h, dose level Control, time 3 day
# [2] = 0 mg/kg, 120 h, dose level Control, time 5 day
# [3] = 4.5 mg/kg, 72 h, dose level Low, time 3 day
structure (smiles),measurement,setting,value
CC(C(=O)O)c1ccc(-c2ccccc2)c(F)c1 (centres undefined) [FLURBIPROFEN],ABSOLUTE BASOPHIL,[1],0 CELLS/uL
same,ABSOLUTE EOSINOPHIL,[1],222.83 CELLS/uL
same,ABSOLUTE LYMPHOCYTE,[1],14453 CELLS/uL
same,ABSOLUTE MONOCYTE,[1],0 CELLS/uL
same,ABSOLUTE SEGMENTED NEUTROPHIL,[1],1490.83 CELLS/uL
same,BASOPHIL,[1],0%
same,EOSINOPHIL,[1],1.33%
same,ERYTHROCYTE COUNT,[1],5.76 x10E6/uL
same,HEMATOCRIT,[1],36.52%
same,HEMOGLOBIN,[1],13.45 G/DL
same,LEUKOCYTE COUNT,[1],16.17 x10E3/uL
same,LYMPHOCYTE,[1],89.33%
same,MEAN CORPUSCULAR HEMOGLOBIN,[1],23.37 pg
same,MEAN CORPUSCULAR HEMOGLOBIN CONCENTRATION,[1],36.85 G/DL
same,MEAN CORPUSCULAR VOLUME,[1],63.47 fL
same,MONOCYTE,[1],0%
same,NEUTROPHIL,[1],9.33%
same,NUCLEATED RED BLOOD CELLS,[1],0 /100WBC
same,PLATELET COUNT,[1],1239.5 x10E3/uL
same,ALANINE AMINOTRANSFERASE,[1],43.83 u/L
same,ALBUMIN,[1],4.27 G/DL
same,ALKALINE PHOSPHATASE,[1],398.83 u/L
same,ASPARTATE AMINOTRANSFERASE,[1],81.17 u/L
same,BLOOD UREA NITROGEN,[1],17.67 mg/dL
same,CARBON DIOXIDE,[1],27.5 mmol/L
same,CHLORIDE,[1],99.17 MEQ/L
same,CHOLESTEROL,[1],74 mg/dL
same,CREATINE PHOSPHOKINASE,[1],331.5 u/L
same,CREATININE,[1],0.2 mg/dL
same,GLUCOSE,[1],171.33 mg/dL
same,LACTATE DEHYDROGENASE,[1],241.67 u/L
same,LIPASE,[1],9.5 u/L
same,PHOSPHORUS,[1],12.25 mg/dL
same,POTASSIUM,[1],6.33 MEQ/L
same,SODIUM,[1],141.28 MEQ/L
same,TOTAL BILIRUBIN,[1],0.15 mg/dL
same,TOTAL PROTEIN,[1],5.98 G/DL
same,URIC ACID,[1],1.63 mg/dL
same,ABSOLUTE BASOPHIL,[2],0 CELLS/uL
same,ABSOLUTE EOSINOPHIL,[2],148.67 CELLS/uL
same,ABSOLUTE LYMPHOCYTE,[2],16020.5 CELLS/uL
same,ABSOLUTE MONOCYTE,[2],29.17 CELLS/uL
same,ABSOLUTE SEGMENTED NEUTROPHIL,[2],1468.33 CELLS/uL
same,BASOPHIL,[2],0%
same,EOSINOPHIL,[2],1%
same,ERYTHROCYTE COUNT,[2],5.78 x10E6/uL
same,HEMATOCRIT,[2],35.77%
same,HEMOGLOBIN,[2],13.4 G/DL
same,LEUKOCYTE COUNT,[2],17.67 x10E3/uL
same,LYMPHOCYTE,[2],90.5%
same,MEAN CORPUSCULAR HEMOGLOBIN,[2],23.22 pg
same,MEAN CORPUSCULAR HEMOGLOBIN CONCENTRATION,[2],37.47 G/DL
same,MEAN CORPUSCULAR VOLUME,[2],61.92 fL
same,MONOCYTE,[2],0.17%
same,NEUTROPHIL,[2],8.33%
same,NUCLEATED RED BLOOD CELLS,[2],0.17 /100WBC
same,PLATELET COUNT,[2],1255.5 x10E3/uL
same,ALANINE AMINOTRANSFERASE,[2],46.5 u/L
same,ALBUMIN,[2],4.38 G/DL
same,ALKALINE PHOSPHATASE,[2],336 u/L
same,ASPARTATE AMINOTRANSFERASE,[2],76.5 u/L
same,BLOOD UREA NITROGEN,[2],20 mg/dL
same,CARBON DIOXIDE,[2],27.5 mmol/L
same,CHLORIDE,[2],101 MEQ/L
same,CHOLESTEROL,[2],71.33 mg/dL
same,CREATINE PHOSPHOKINASE,[2],231.83 u/L
same,CREATININE,[2],0.37 mg/dL
same,GLUCOSE,[2],168.83 mg/dL
same,LACTATE DEHYDROGENASE,[2],174 u/L
same,LIPASE,[2],8.67 u/L
same,PHOSPHORUS,[2],11.48 mg/dL
same,POTASSIUM,[2],6.82 MEQ/L
same,SODIUM,[2],143.8 MEQ/L
same,TOTAL BILIRUBIN,[2],0.2 mg/dL
same,TOTAL PROTEIN,[2],5.98 G/DL
same,URIC ACID,[2],1.83 mg/dL
same,ABSOLUTE BASOPHIL,[3],0 CELLS/uL
same,ABSOLUTE EOSINOPHIL,[3],292.33 CELLS/uL
same,ABSOLUTE LYMPHOCYTE,[3],14732.33 CELLS/uL
same,ABSOLUTE MONOCYTE,[3],0 CELLS/uL
same,ABSOLUTE SEGMENTED NEUTROPHIL,[3],2542 CELLS/uL
same,BASOPHIL,[3],0%
same,EOSINOPHIL,[3],1.67%
same,ERYTHROCYTE COUNT,[3],5.5 x10E6/uL
same,HEMATOCRIT,[3],34.7%
same,HEMOGLOBIN,[3],12.83 G/DL
same,LEUKOCYTE COUNT,[3],17.57 x10E3/uL
same,LYMPHOCYTE,[3],83.67%
same,MEAN CORPUSCULAR HEMOGLOBIN,[3],23.33 pg
same,MEAN CORPUSCULAR HEMOGLOBIN CONCENTRATION,[3],36.97 G/DL
same,MEAN CORPUSCULAR VOLUME,[3],63.03 fL
same,MONOCYTE,[3],0%
same,NEUTROPHIL,[3],14.67%
same,NUCLEATED RED BLOOD CELLS,[3],0 /100WBC
same,PLATELET COUNT,[3],1184.67 x10E3/uL
same,ALANINE AMINOTRANSFERASE,[3],49.67 u/L
same,ALBUMIN,[3],3.57 G/DL
same,ALKALINE PHOSPHATASE,[3],319 u/L
same,ASPARTATE AMINOTRANSFERASE,[3],69.33 u/L
same,BLOOD UREA NITROGEN,[3],13.33 mg/dL
same,CARBON DIOXIDE,[3],30 mmol/L
same,CHLORIDE,[3],99.67 MEQ/L
same,CHOLESTEROL,[3],69 mg/dL
same,CREATINE PHOSPHOKINASE,[3],219.67 u/L
same,CREATININE,[3],0.25 mg/dL
same,GLUCOSE,[3],168.33 mg/dL
same,LACTATE DEHYDROGENASE,[3],123.67 u/L
same,LIPASE,[3],8.33 u/L
same,PHOSPHORUS,[3],12.13 mg/dL
same,POTASSIUM,[3],6.57 MEQ/L
same,SODIUM,[3],143.2 MEQ/L
same,TOTAL BILIRUBIN,[3],0.23 mg/dL
same,TOTAL PROTEIN,[3],5.37 G/DL
same,URIC ACID,[3],1.77 mg/dL
